# Experimental data published in patent publication US20120003156A1, “METHODS FOR TREATING NEOPLASIA BY INHIBITING LACTATE DEHYDROGENASE AND/OR NICOTINAMIDE PHOSPHORIBOSYLTRANSFERASE” (The Johns Hopkins University, priority 2008, published 2012).
# What was measured:
# [1] = test system: P493 human lymphoma B cells; test: Human P493 B cell lymphoma xenograft; assay type: in vivo, SCID mice; conditions: treatment from 200 mm^3; daily IP 42 μg FX11 and/or 100 μg FK866; ten days
# Protocol: The animal studies were performed according to the protocols approved by the Animal Care and Use Committee at Johns Hopkins University. In order to generate tumorigenesis study in xenograft model, 2.0×10^7 P493 human lymphoma B cells or 5×10^6 human pancreatic cancer cells were injected subcutaneously into male SCID mice (NCI) or athymic Hsd: RH-Foxn1nu mice (Harlan), respectively, as previously described (Feldmann et al., 2007; Gao et al., 2009; Gao et al., 2007). When the tumor volume reached 200 mm^3, groups of 5 mice were injected with control 2% DMSO or 42 μg FX11 and/or 100 μg FK866. The tumor volumes were measured using a digital caliper after 4, 7 and 10 days of treatment. Tumor volumes were calculated using the following formula: [length (mm)×width (mm)×width (mm)×0.52]. The entire experiment was repeated seven times.
# LDHA [2] = biological target: T1, LDHA (Homo sapiens, UniProt P00338); conditions: cited from earlier work
# [3] = biological target: purified human liver LDHA (Homo sapiens, UniProt P00338); test: Determination of Ki and enzyme kinetics of LDHA
# Protocol: The reaction velocity of purified human LDHA or GAPDH was determined by a decrease or increase in absorbance at 340 nm of NADH, respectively. […] The GADPH activity was assessed using the protocol described in Worthington Enzyme Manual: http://www.worthington-biochem.com/GAPD/assay.html with varying concentrations of NAD^+. Ki values were determined from double-reciprocal plots by linear regression analysis using SigmaPlot Enzyme Kinetic software.
# P493 cells [4] = test: ROS measurement by DCFDA flow cytometry; assay type: cell-based, human
# Protocol: The measurement of intracellular ROS production was measured by staining cells with 5-(and-6)-carboxy-2′,7′-dichlorodihydrofluorescein diacetate (carboxy-H2DCFDA; Molecular Probes) according to the manufacturer's instructions. 10^5 cells/ml were treated with 9 μM FX11 or FK866 for 24 hours. Stained cells were analyzed in FACScan flow cytometers (BD Bioscience).
# [5] = test system: P493 human lymphoma B cells; test: Cell population growth, trypan blue live cell count; assay type: cell-based
# Protocol: P493 human lymphoma B cells were maintained in RPMI 1640 with 10% fetal bovine serum (FBS) and 1% penicillin-streptomycin. P198 human pancreatic cancer cells; RCC4, RCC4-VHL human renal carcinoma cells; MCF-7 and MDA-MB-453 breast cancer cells were maintained in high glucose (4.5 mg/ml) DMEM with 10% FBS and 1% penicillin-streptomycin. Non-hypoxic cells (20% O2) were maintained at 37° C. in a 5% CO2, 95% in an air incubator. Hypoxic cells (1% O2) were maintained in a controlled atmosphere chamber (PLAS-LABS, Lansing, Mich.) with a gas mixture containing 1% O2, 5% CO2, and 94% N2 at 37° C. for the indicated time. Bright live cells were counted daily in a hemacytometer using trypan blue dye to exclude dead cells. All cells were grown at a concentration of 10^5 cells/ml. All drugs treatment began at day 0.
# siRNAs targeting human LDHA (ON-TARGETplus SMARTpool) were purchased from Dharmacon Research Inc. Targeting sequences for LDHA were a pool of the following four target sequences: sequence 1, […]; sequence 2, […]; sequence 3, […]; sequence 4, […]. Accordingly, one of skill in the art would recognize the siRNA sequences corresponding to these targets. For P493 human lymphoma B cells, transfection of siRNAs was performed using an Amaxa Nucleotransfection device according to the manufacturer's instructions. Briefly, 2 μg siLDHA ON-TARGETplus SMARTpool or ON-TARGETplus Non-targeting Pool (Dharmacon Research Inc.) were transfected into 2×10^6 cells at 0 hours. […]. The remaining cells were harvested for immunoblot analysis. For P198 human pancreatic cancer cells, transfection of siRNAs was performed using X-tremeGENE siRNA Transfection Reagent (Roche) according to the manufacturer's instructions.
# P493 cells [6] = test: Mitochondrial membrane potential by JC-1 flow cytometry; assay type: cell-based, human; conditions: 9 μM FX11 or/and FK866, 24 hours
# From the text: The lipophilic cation dye (5,5′,6,6′-tetrachloro-1,1′,3,3′-tetraethylbenzimidazolcarbocyanine iodide, JC-1) (Invitrogen) was used to detect the loss of the mitochondrial membrane potential. The negative charge established by the intact mitochondrial membrane potential lets the lipophilic dye stain the mitochondria bright red which emits in channel 2 (FL2). When the mitochondrial membrane potential collapses, JC-1 remains in the cytoplasm in a green fluorescent monomeric emission in channel 1 (FL1). JC-1 reversibly changes its color from green to orange as membrane potentials increase (over values of 80-100 mV). 10^5 cells/ml were treated with 9 μM FX11 or/and FK866 for 24 hours. Stained cells were analyzed in FACScan flow cytometers (BD Bioscience).
# P493 cells [7] = test: ATP levels, luciferin-luciferase-based assay; assay type: cell-based, human; conditions: 9 μM FX11 or 0.5 nM FK866, 20 hours
# Protocol: P493 cells were treated with 9 μM FX11 or 0.5 nM FK866 for 20 hours and counted. ATP levels were determined by luciferin-luciferase-based assay (Promega) on aliquots containing equal number of cells according to standard protocol.
# AMP kinase (AMPK) = test: Immunoblot of phospho-AMPK; assay type: cell-based, human; conditions: 20 hours of exposure
# [8] = Side effects, hematology and blood chemistry in treated animals
# P493 cells [9] = test: Annexin V / 7-AAD cell death assay; assay type: cell-based, human; conditions: NAC 20 mM at 24 hours post-transfection
# LDHA [10] = biological target: T1, LDHA; test: Screen of 1200 FDA approved compounds for an inhibitor of LDHA; assay type: biochemical
# From the text: Reduction of LDHA by siRNA induced oxidative stress and cell death. To determine whether a small molecule inhibitor of LDHA could be used to modulate tumor metabolism, 1200 FDA approved compounds were screened to identify an inhibitor of LDHA. […] As such, a series of compounds generated by Vander Jagt and coworkers, who were specifically interested in targeting malarial LDH (pLDH) (Deck et al., 1998; Yu et al., 2001) was screened. […]; 2,3-dihydroxy-6-methyl-7-(phenylmethyl)-4-propylnaphthalene-1-carboxylic acid, Pubchem ID: 10498042) and 11e (E; 2,3-dihydroxy-6-methyl-7-(methyl)-4-propylnaphthalene-1-carboxylic acid, Pubchem ID: 10265351). […]; Yu et al., 2001). […]
smiles,measurement,setting,value
"CCCc1c(O)c(O)c(C(=O)O)c2cc(C)c(C)cc12 [E, 2,3-dihydroxy-6-methyl-7-(methyl)-4-propylnaphthalene-1-carboxylic acid, reference compound]",tumor growth of established P493 lymphoma xenografts,[1],no detectable anti-tumor activity
same,LDHA inhibitory activity,LDHA [2],lower inhibitory activity versus FX11
same,Ki,[3],> 90 µM
same,mode of inhibition of LDHA,"[3]; NADH as substrate, Lineweaver-Burk plots",competitive inhibitors
"O=C(/C=C/c1cccnc1)NCCCCC1CCN(C(=O)c2ccccc2)CC1 [FK866, reference compound]",ROS production,"P493 cells [4]; 9 μM FX11 or FK866, 24 hours",increased ROS production
same,proliferation of P493 cells,[5]; single agent,diminished proliferation
same,mitochondrial membrane potential,P493 cells [6],decreased
same,ATP levels,P493 cells [7],decrease in ATP levels
same,AMP kinase (AMPK) activation,AMP kinase (AMPK),activation
same,tumor growth of established P493 lymphoma xenografts,[1],cytostatic outcome
same,"kidney (BUN, creatinine) or liver (aspartate aminotransferase, alanine aminotransferase, alkaline phosphatase) toxicity by blood chemistries",[8]; doses that affected tumor growth in vivo,did not reveal any evidence
same,hematology (cytopenia),"[8]; single agent, five animals studied",mild thrombocytopenia
"CC(=O)N[C@@H](CS)C(=O)O [NAC, N-acetylcysteine, reference compound]",effect on ROS induced by LDHA siRNA,P493 cells [4]; cells exposed to NAC,attenuated
same,effect on cell death of siRNA-transfected cells,P493 cells [9],partially reduced cell death
same,effect on proliferation of P493 cells treated with either FX11 or FK866,[5]; 20 mM NAC,partially rescue
same,effect on cell proliferation of siRNA-transfected cells,[5]; NAC 20 mM at 24 hours post-transfection,partial rescue of cell proliferation
CCCOc1ccccc1-c1nc2nn[nH]c2c(=O)[nH]1 [Zaprinast],LDHA inhibition in screen,LDHA [10],weak LDHA inhibitor
